Results as given in patent US20260138976A1 (Hoffmann-La Roche Inc., priority 2022, published 2026).

Test system: primary human T-cells
Test: IL2 secretion measurements (24 h, CD3-stimulated T-cells, PBS counter screen)
Format: cell-based
Settings: for Emax IL2 (% activation): CD3 condition, normalised to DMSO (neutral) and 20 μM reference compound A1 = 100%; for EC50: Homo sapiens, T-cell, CD3-stimulated primary human T-cells, IL2 secretion, fitted sigmoidal curve, read-out: Tcell IL2 CD3 EC50
Description: As readouts for T-cell activation, 1L2 secretion after 24 hours and proliferation after 5 days was measured. Increases in IL2 secretion and proliferation upon compound treatment were assessed as the % of the maximum of reference compound A1. WO 2016/139181 discloses reference compound A1 as example 70. As a counter screen and to make sure that no unwanted TCR-independent activation was triggered, PBS conditions were run for all compounds.
Expanded primary human T-cells were thawed and cultured in RPMI 1640 (Gibco, #61870-010)+5% human serum (HS, Sigma, #H3667)+1 mM Sodium Pyruvate (Gibco, #11360-039)+50 μM 2-mercaptoethanol (Gibco, #31350-010) and 1× Pen-Strep (Life Technologies, #15140122) medium at density of 2 Mio/ml for 3 hours in 5% CO2, 37° C. and 95% humidity. For coating of plates, […] or PBS++ with CD3 antibody (concentration depending on donor and determined by CD3 titrations) was added 100 μl/well to Poly-D Lysine coated 96-well plates. Plates were sealed and incubated at room temperature for 3 hours on a table-top rocking platform. After incubation, plates were washed once with PBS−− and filled with 40 μl/well culture medium only. Compounds were then added (see next section) to medium only plates. After 3 hours of culturing the T-cells, cells were filtered through a cell strainer (Miltenyi Biotech, #130-041-407), counted again and concentration was adjusted to 1.25 Mio/ml.
Cells were then seeded 80 μl/well to the 40 μl/well including dispensed compounds according to plate layout. By adding cells, compounds were further diluted 1:3, and resulting in 100 k cells/120 μl/well. After 24 hours 40 μl of supernatant was collected carefully from the top while not disturbing the cells and transferred into a round bottom 96 well plate. Collected and frozen supernatant was used for detection of IL2 using the IL-2 Human ProQuantum Immunoassay Kit (Invitrogen) or using the Human IL-2 ELISA Kit (Thermo Fisher).
Compounds were added in a 5 or 6 pt dose response with the Tecan D300e Digital Dispenser, all conditions 3 times more concentrated than the end-concentration, since cells are added afterwards (80 μl cells to 40 μl prepared medium with treatment). The DR was starting at 20 μM or 10 μM final top concentration and a dilution factor of 3.333. The positive control was the reference compound A1 that was added in a dose response as well, additionally to 3 wells of only 20 μM representing the positive stimulator control. All wells were normalized with DMSO to a final concentration of 0.6% (0.2% end-concentration).
The immunoassay is done following the manufacturer's manual (Invitrogen, #A35603). Additional information: For the immunoassay, MicroAmp™ EnduraPlate™ Optical 384-Well plates are used. Frozen supernatant is thawed and centrifuged for 5 minutes at 1000×g, both steps at 4° C. After centrifugation, required sample amount is taken from the top, and in a separate LightCycler V-bottom plate (working plate) diluted with assay dilution buffer, dilution factor depending on the PBS or CD3 condition but at least 1:3. IL-2 standard and blanks are prepared in the same V-bottom plate, standard with a range of 0.0128-5000 pg/ml (extended version). After preparation, 5 μl of sample dilutions or standard/blanks are transferred to the optical 384-well plate (assay plate) and the 10 μl reaction protocol is being followed. For measurement, the QuantStudio 12K Flex system is used. Raw data is extracted and IL-2 concentrations are calculated with the Thermo Fisher online app (apps.thermofisher.com/apps/proquantum).
ELISA is done following the manufacturer's manual (Thermo Fisher Scientific, #88-7025-88). Additional information: For the ELISA Nunc MaxiSorp 96 well plates are used. Frozen supernatant is thawed and centrifuged for 5 minutes at 1000×g, both steps at 4° C. […]

CC1(Nc2nnc(-c3cc4c(cc3F)S(=O)(=O)C[C@H](N)C(=O)N4Cc3ccc(-c4noc(C(F)(F)F)n4)cc3)o2)CC(F)(F)C1 [Example 3, (3R)-3-amino-7-[5-[(3,3-difluoro-1-methyl-cyclobutyl)amino]-1,3,4-oxadiazol-2-yl]-8-fluoro-1,1-dioxo-5-[[4-[5-(trifluoromethyl)-1,2,4-oxadiazol-3-yl]phenyl]methyl]-2,3-dihydro-1λ^6,5-benzothiazepin-4-one]
Emax IL2 (% activation): 594 % activation | EC50: 213 nM

N[C@H]1CS(=O)(=O)c2cc(F)c(-c3nnc(N4CCOC5(CC5)C4)o3)cc2N(Cc2ccc(-c3noc(C(F)(F)F)n3)cc2)C1=O [Example 4, (3R)-3-amino-8-fluoro-7-[5-(4-oxa-7-azaspiro[2.5]octan-7-yl)-1,3,4-oxadiazol-2-yl]-1,1-dioxo-5-[[4-[5-(trifluoromethyl)-1,2,4-oxadiazol-3-yl]phenyl]methyl]-2,3-dihydro-1λ^6,5-benzothiazepin-4-one]
Emax IL2 (% activation): 220 % activation | EC50: 207 nM

N[C@H]1CS(=O)(=O)c2cc(F)c(-c3nnc(N4CCC(F)(F)CC4)o3)cc2N(Cc2ccc(-c3noc(C(F)(F)F)n3)cc2)C1=O [Example 5, (3R)-3-amino-7-[5-(4,4-difluoro-1-piperidyl)-1,3,4-oxadiazol-2-yl]-8-fluoro-1,1-dioxo-5-[[4-[5-(trifluoromethyl)-1,2,4-oxadiazol-3-yl]phenyl]methyl]-2,3-dihydro-1λ^6,5-benzothiazepin-4-one]
Emax IL2 (% activation): 537 % activation | EC50: 323 nM

COc1ccc(-c2ccc(CN3C(=O)[C@@H](N)CS(=O)(=O)c4cc(F)c(-c5noc(C6(N)COC6)n5)cc43)cc2)cc1 [Example 8, (3R)-3-amino-7-[5-(3-aminooxetan-3-yl)-1,2,4-oxadiazol-3-yl]-8-fluoro-5-[[4-(4-methoxyphenyl)phenyl]methyl]-1,1-dioxo-2,3-dihydro-1λ^6,5-benzothiazepin-4-one]
Emax IL2 (% activation): 96 % activation | EC50: 5600 nM

N[C@H]1CS(=O)(=O)c2cc(F)c(-c3noc(C4(N)COC4)n3)cc2N(Cc2ccc(-c3noc(C(F)(F)F)n3)cc2)C1=O [Example 9, (3R)-3-amino-7-[5-(3-aminooxetan-3-yl)-1,2,4-oxadiazol-3-yl]-8-fluoro-1,1-dioxo-5-[[4-[5-(trifluoromethyl)-1,2,4-oxadiazol-3-yl]phenyl]methyl]-2,3-dihydro-1λ^6,5-benzothiazepin-4-one]
Emax IL2 (% activation): 558 % activation | EC50: 1100 nM

N[C@H]1CS(=O)(=O)c2cc(F)c(-c3noc(C4(N)COC4)n3)cc2N(Cc2ccc(-c3ccc(C(F)(F)F)cn3)cc2)C1=O [Example 10, (3R)-3-amino-7-[5-(3-aminooxetan-3-yl)-1,2,4-oxadiazol-3-yl]-8-fluoro-1,1-dioxo-5-[[4-[5-(trifluoromethyl)-2-pyridyl]phenyl]methyl]-2,3-dihydro-1λ^6,5-benzothiazepin-4-one]
Emax IL2 (% activation): 123 % activation | EC50: 9430 nM

N[C@H]1CS(=O)(=O)c2cc(F)c(-c3noc(N4CCOC5(CC5)C4)n3)cc2N(Cc2ccc(-c3ccc(C(F)(F)F)cc3)nc2)C1=O [Example 11, (3R)-3-amino-8-fluoro-7-[5-(4-oxa-7-azaspiro[2.5]octan-7-yl)-1,2,4-oxadiazol-3-yl]-1,1-dioxo-5-[[6-[4-(trifluoromethyl)phenyl]-3-pyridyl]methyl]-2,3-dihydro-1λ^6,5-benzothiazepin-4-one]
Emax IL2 (% activation): 64 % activation | EC50: 7700 nM

N[C@H]1CS(=O)(=O)c2cc(F)c(-c3noc(N4CCOC(F)(F)C4)n3)cc2N(Cc2ccc(-c3noc(C(F)(F)F)n3)nc2)C1=O [Example 12, (3R)-3-amino-7-[5-(2,2-difluoromorpholin-4-yl)-1,2,4-oxadiazol-3-yl]-8-fluoro-1,1-dioxo-5-[[6-[5-(trifluoromethyl)-1,2,4-oxadiazol-3-yl]-3-pyridyl]methyl]-2,3-dihydro-1λ^6,5-benzothiazepin-4-one]
Emax IL2 (% activation): 167 % activation | EC50: 3050 nM
